Measurements reported in patent US12201591B2, “Sustained release compositions of endoxifen” (Atossa Therapeutics, Inc., priority 2019, dated 2025).
Values joined by “and” are separate entries in the source; they are usually repeats but may differ in a detail not shown here. Equal values may be shown once. Read-outs that look alike come from different tables or passages of the source.

Legend:
[1] = cited from earlier work
[2] = Forced degradation (acid, base, heat, oxidation); format: physicochemical
[3] = Phase I pharmacokinetic study of (Z)-endoxifen tablet and capsule, single and multiple dose; format: in vivo, human; settings: for (E)-endoxifen levels in serum and plasma: all the times studied
Method: A total of 24 healthy female subjects aged ≥18 years and ≤65 years (inclusive) at the time of screening were randomly assigned and enrolled into two groups (each group n=12) in double-blinded fashion and received the study drug by once daily oral administration. […] Both groups were dosed in the SAD phase of the study. The safety and PK results from both groups were reviewed to determine if both Groups 1 and 2 were to be dosed in the MAD phase of the study, or if only Group 2 (tablets) were to be dosed in the MAD phase. […] The subjects then received 14 daily doses in the MAD. Subjects were not required to take the drugs with food.
Subjects were admitted to the clinical facility on Day 1 for up to 3 days. […] Following completion of all safety assessments and sampling for PK analyses, subjects were discharged from the clinical facility on Day 2. Days 2 to 25 were study drug free or daily dosing pause. A safety summary and up to day 6 post dose, PK data were analyzed (blindedly) and reviewed prior to initiation of the MAD regimen in one or both groups.
MAD regimen started on Day 26. Depending on the outcome of the safety and PK review, wither […] or both Groups 1 and 2 were to be dosed in the MAD part of the study starting on Day 26. […] Subjects in MAD part of the study commenced daily oral administration of the study drug for 14 consecutive days (Days 26 to 39). Subjects were supplied with study drug and instructed to self-administer each morning on empty stomach.
Day 39 was the last day of study drug administration. On Day 39, each subject returned to the clinical facility prior to dose administration and were confined to the facility until Day 40 to allow for collection of blood for PK and safety assessment. Subjects were discharged on Day 40 and returned for blood collection for PK and safety assessment on study Days 42, 44, and 46.
Safety and PK samples was collected during the daily dosing pause on Days 4, 6, 15, and 22.
MAD: Day 26 pre-dose and on Day 32 pre-dose: safety and PK samples was collected. […] Pharmacokinetic parameters determined using Phoenix WinNonlin 8.1. All times used in the calculations of PK parameters were the actual elapsed time from most recent treatment administration, with the exception of pre-dose data which was given the nominal time of 0.00 hr.

[4] = Phase I study: safety and tolerability of (Z)-endoxifen tablet and capsule; format: in vivo, human
Excerpt: The primary objective of the study was to determine and compare the pharmacokinetics of a single oral dose of a previously studied oral (Z)-endoxifen capsule with a sustained release composition in the form of an enteric coated delayed release (Z)-endoxifen tablet (“tablet”) in healthy female volunteers. […] A secondary objective of the study was to assess the safety and tolerability of each of the oral presentation groups and to assess and compare the side effects associated with (Z)-endoxifen (capsule) or the enteric coated delayed-release (Z)-endoxifen tablet using a questionnaire.
A study diary was provided to each participant for the purpose of recording study drug administration (date and time) and adverse events.
Study assessments included taking the subjects' medical history, including evaluation of any on-study adverse events and concomitant medication use; height and weight; physical examination; periodic vital signs (body temperature, heart rate, respiratory rate, blood pressure); periodic 12-lead ECGs. Laboratory tests included hematology, coagulation, urinalysis, serum chemistry, virology, illicit drug screen, alcohol breath test, and pregnancy test.
Specific assessment to evaluate treatment safety included the following: the frequency and type of adverse events, clinical laboratory testing, 12-lead-ECGs and vital signs. A modified FACTES® scoring questionnaire was used to assess symptomatology.

[5] = system: breast cancer tumor cell proliferation (Ki-67); assay: Phase 2 clinical trial of oral endoxifen: Ki-67 in breast cancer tumors; format: in vivo, human
Method: A phase 2 clinical trial of (Z)-endoxifen for treatment of breast cancer was performed. Subjects with invasive breast cancer were administered (Z)-endoxifen orally prior to undergoing mastectomy or lumpectomy. The effect of pre-operative oral (Z)-endoxifen treatment on clinical response measured by Ki-67 expression levels was assessed. Ki-67 expression levels were used as a measure of tumor cell proliferation in the subjects. The purpose of this study was to determine the effect of orally administered endoxifen on breast cancer tumor cell proliferation.
Subjects were selected who had received an invasive breast cancer diagnosis that required a mastectomy or lumpectomy, in which the cancer was Estrogen Receptor (ER) positive and Human Epidermal growth factor Receptor 2 (HER2) negative.
Subjects with ER positive invasive breast cancer that were scheduled for mastectomy or lumpectomy were considered for the study. Subjects consenting to the study were screened within 28 days prior to commencement of the dosing. Potential subjects were asked to consent to have tissue sections obtained from the biopsy material used for their immunopathology diagnosis. The biopsy material was used to determine baseline expression levels for Ki-67, ER, PgR and the exploratory markers.
An initial group of six subjects was selected. Subjects visited the clinical facility once within 2 days prior to commencement of treatment for study assessments. Subjects were supplied with study drug and were asked to self-administer daily. A study diary was provided to each subject for the purpose of recording study drug administration (date and time) and any adverse events. All subjects received an oral daily dose of 4 mg/day (Z)-Endoxifen until the day preceding their scheduled surgery and for a minimum of 14-days. Subjects were instructed to take each dose in the morning in a fasted state, defined as no food at least 8 hours prior to study medication through to one hour following study medication. Subjects were instructed to self-administer (Z)-Endoxifen orally with a full cup (approximately 240 mL) of noncarbonated room temperature water (additional water is permitted, if needed). There are no restrictions related to water intake. Consecutive doses were administered 24 (±2) hours apart. If a scheduled dose was missed, the dose could be taken up to 6 hours after the scheduled dose.
(§1) Each subject returned to the clinical facility for safety assessments on a day during the week preceding their scheduled surgery. The expression of Ki-67, ER, progesterone receptor (PgR), and other exploratory markers, was measured in tumor tissue obtained during the mastectomy (or lumpectomy) and compared to the expression of these markers in pre-operative baseline biopsy material obtained prior to commencement of study treatment. Pharmacodynamic exploratory markers including Proliferating cell nuclear antigen (PCNA, S phase), phosphor-histone H3 (M phase), p16 and p12 (senescence), beta-galactosidase (senescence), Terminal deoxynucleotidyl transferase dUTP nick end labeling (TUNEL, apoptosis), and RNA sequence were assessed. Ki-67, ER, PgR expression were measured using standard immunopathology techniques, and exploratory markers were measured using established laboratory assays. Endoxifen levels in blood measured in blood drawn prior to dosing on day 14 of study treatment administration. Individual and mean serum and plasma concentrations of Endoxifen were tabulated.

[6] = Phase 2 clinical trial of oral endoxifen: safety and tolerability; format: in vivo, human; settings: 4 mg/day, 16-40 days
Method: Secondary effects of orally administered (Z)-endoxifen were also assessed, namely the effect of pre-operative (Z)-endoxifen treatment on the expression levels of estrogen receptor and progesterone receptor. […] Additional exploratory objectives including assessing the effect of pre-operative (Z)-Endoxifen treatment on PCNA (S phase), phospho-Histone H3 (M phase), p16 and p21 (senescence), Beta-Galactosidase (senescence), and TUNEL (apoptosis) markers, and identifying tumor RNA expression changes using RNA sequence.
An initial group of six subjects was selected. Subjects visited the clinical facility once within 2 days prior to commencement of treatment for study assessments. […]
as §1, with “Pharmacodynamic exploratory markers including Proliferating cell nuclear antigen (PCNA, S phase), phosphor-histone H3 (M phase), p16 and p12 (senescence), beta-galactosidase (senescence), Terminal deoxynucleotidyl transferase dUTP nick end labeling (TUNEL, apoptosis), and RNA sequence were assessed.” left out, “Individual and mean serum and plasma concentrations of Endoxifen were tabulated.” left out

[7] = Safety, tolerability and pharmacokinetics of (Z)-Endoxifen in healthy female volunteers (Protocol AG-1001-AU-001); format: in vivo, human
Method: The safety, tolerability and pharmacokinetics of (Z)-Endoxifen was assessed in healthy female volunteers (Protocol AG-1001-AU-001). Participants were treated with oral (Z)-Endoxifen (1 mg, 2 mg and 4 mg) once daily for a total of fifteen doses (Days 1, and 8-21).
Average concentration at steady state (AUCtau/tau) were compared to published values.

[8] = multiple administration dose phase
[9] = single administration dose phase

For `CC/C(=C(\c1ccc(O)cc1)c1ccc(OCCNC)cc1)c1ccccc1.Cl` [Endoxifen Chloride], the “(Z)-Endoxifen Plasma” value ([1]; 20 mg/day, Aromatase Inhibitor Refractory Metastatic Breast Cancer, Goetz et al. 2013) is listed as 390 nM, the Outcomes ([1]; 20 mg/day, Goetz et al. 2013) is listed as “Gr 2 hot flash (1” and the “(Z)-Endoxifen Plasma” value ([1]; 40 mg/day, Aromatase Inhibitor Refractory Metastatic Breast Cancer, Goetz et al. 2013) is listed as 660 nM. The Outcomes ([1]; 40 mg/day, Goetz et al. 2013) was “None; Stable disease”, the “(Z)-Endoxifen Plasma” value ([1]; 60 mg/day, Aromatase Inhibitor Refractory Metastatic Breast Cancer, Goetz et al. 2013) was 1,010 nM and the Outcomes ([1]; 60 mg/day, Goetz et al. 2013) was “Gr 4 Triglycerides”. The “(Z)-Endoxifen Plasma” value ([1]; 80 mg/day, Aromatase Inhibitor Refractory Metastatic Breast Cancer, Goetz et al. 2013) was 1,610 nM, the Outcomes ([1]; 80 mg/day, Goetz et al. 2013) was “Gr 2 Hot flashes” and the “(Z)-Endoxifen Plasma” value ([1]; 100 mg/day, Aromatase Inhibitor Refractory Metastatic Breast Cancer, Goetz et al. 2013) was 2,480 nM. For the same compound, the Outcomes ([1]; 100 mg/day, Goetz et al. 2013) was “Gr 2 nausea (1 pt); Gr”, the “(Z)-Endoxifen Plasma” value ([1]; 120 mg/day, Aromatase Inhibitor Refractory Metastatic Breast Cancer, Goetz et al. 2013) was 2,180 nM and the Outcomes ([1]; 120 mg/day, Goetz et al. 2013) was “Gr 2 hypersomnia,”. The “Outcomes: maximum tolerated dose” value ([1]; 20->160 mg/day, Goetz et al. 2015) was “not observed. 1 DLT,” and the “(Z)-Endoxifen Plasma” value ([1]; 160 dose (20->160 mg/day), Goetz et al. 2015) was 3,600 nM.
With `CCC(=C(c1ccc(O)cc1)c1ccc(OCCNC)cc1)c1ccccc1` [(Z)-endoxifen, 4-hydroxy-N-desmethyl-tamoxifen] the “% degradation” value ([2]; Acid: 0.5N HCl for 27 hrs) was “No degradation”, the “% degradation” value ([2]; Base: 0.5N NaOH for 27 hrs) was 0.12% and the “% degradation” value ([2]; Heat: 105° C. for 51 hrs) was “No degradation”. The “Plasma (Z)-endoxifen level” value ([3]; by Day 26 (600 hours post-dose)) was “below the detection levels”, the concentration at 14 days ([3]; female, human, blood, oral, 14 once daily 4 mg doses, read-out: (Z)-endoxifen maintained in the blood) was ~13 ng/mL and > 30 nM and the “mean serum versus time-point matched mean plasma (Z)-endoxifen concentration” value [3, 8] was “approximately 1.2 fold”. The “time to achieve steady state levels of plasma and serum (Z)-endoxifen” value ([3]; once daily 4 mg doses) was “approximately 14 days”, the “mean serum versus time-point matched mean plasma (Z)-endoxifen concentration” value [3, 9] was “approximately 1.1 fold” and the “night sweats reported, percent of subjects” value ([4]; multiple dose administration phase, 2 of 19 subjects) was 11%. For the same compound, the “hot flash reported, percent of subjects” value ([4]; multiple dose administration phase, 4 of the 18 subjects) was 22%, the “hot flash reported, percent of subjects” value ([4]; single dose administration phase, 2 of 18 subjects) was 11% and the “Ki-67% reduction, AVERAGE” value ([5]; initial results, six subjects, 4 mg/day, average 22 days) was 69%. For the same compound, the “Ki-67 reduction in every patient” value ([5]; six subjects, 4 mg/day) was “more than 50%”, the “Ki-67 level after Endoxifen treatment (all patients)” value ([5]; six subjects, 4 mg/day, 16-40 days) was “low (low (defined as less than ˜14%))” and the Ki-67% reduction ([5]; subject R1001) was 60%. The “Post Endoxifen Ki-67%” value ([5]; subject R1001, 21 days on Endoxifen 4 mg, pre 5%) was 2%, the Ki-67% reduction ([5]; subject R1002) was 60% and the “Post Endoxifen Ki-67%” value ([5]; subject R1002, 23 days on Endoxifen 4 mg, pre 20%) was 8%. The Ki-67% reduction ([5]; subject R1003) was 87%, the “Post Endoxifen Ki-67%” value ([5]; subject R1003, 17 days on Endoxifen 4 mg, pre 90%) was 12% and the Ki-67% reduction ([5]; subject R1004) was 91%. For the same compound, the “Post Endoxifen Ki-67%” value ([5]; subject R1004, 17 days on Endoxifen 4 mg, pre 22%) was 2%, the Ki-67% reduction ([5]; subject R1005) was 60% and the “Post Endoxifen Ki-67%” value ([5]; subject R1005, 40 days on Endoxifen 4 mg, pre 25%) was 10%. The Ki-67% reduction ([5]; subject R1006) was 58%, the “Post Endoxifen Ki-67%” value ([5]; subject R1006, 16 days on Endoxifen 4 mg, pre 12%) was 5% and the “Ki-67 levels following treatment, all six patients” value ([5]; subsequent results) was “below 25%”. For the same compound, the “average reduction in tumor cell proliferation, as measured by Ki-67” value ([5]; subsequent results, 22 days of dosing, six subjects, p=0.031) was “about 74%”, the “safety or tolerability issues, including vasomotor symptoms” value [6] was “no safety or tolerability issues” and the “% Ratio of Css Study (serum)/Literature (plasma)” value (“% Ratio of Css Study” below) ([7]; 1 mg dose) was 154%. The “Study Result of Average Serum (Z)-Endoxifen Css” value (“Study Result of Average Serum” below) ([7]; 1 mg dose) was 19.1 ng/mL and 51.1 nM, the “Cmax and AUC24 hr across the three dose levels” value ([7]; 1 mg, 2 mg and 4 mg) was “dose-proportionality” and the safety signals ([7]; 1 mg, 2 mg and 4 mg once daily, fifteen doses) was “no clinically significant safety signals”. For the same compound, the “% Ratio of Css Study” value ([7]; 2 mg dose) was 204%, the “Study Result of Average Serum” value ([7]; 2 mg dose) was 38 ng/mL and 101.7 nM and the “% Ratio of Css Study” value ([7]; 4 mg dose) was 150%. The “Study Result of Average Serum” value ([7]; 4 mg dose) was 85.1 ng/mL and 227.9 nM, the half-life ([7]; female, human, serum, oral, 1 mg, 2 mg and 4 mg, read-out: mean half-life (t1/2) by dose level) was 42 to 53 h and the “time to steady state” value ([7]; once daily dosing) was “approximately 7 days”. The “commonly occurring adverse events with a relationship of possible or probable” value ([7]; only reported in participants who received (Z)-Endoxifen) was “upper respiratory infection, hot flush, abdominal distension, dry mouth and menstruation delayed”, the tolerability ([7]; single dose and then daily for 14 days, 1 mg, 2 mg and 4 mg) was “well tolerated” and the “Published Literature Result of Average Plasma (Z)-Endoxifen Css” value (“Published Literature Result” for short) ([1]; 1 mg dose) was 12.4 ng/mL and 33.1 nM. For the same compound, the “Published Literature Result” value ([1]; 2 mg dose) was 18.6 ng/mL and 49.8 nM, the “Published Literature Result” value ([1]; 4 mg dose) was 56.8 ng/mL and 152.1 nM and the “Published Literature Result” value ([1]; 8 mg dose) was 96.8 ng/mL and 259.2 nM.
In the case of `CCC(=C(c1ccc(O)cc1)c1ccc(OCCNC)cc1)c1ccccc1` [(E)-endoxifen], the “(E)-endoxifen levels in serum and plasma” value [3, 8] is reported as “undetectable” and the “(E)-endoxifen levels in serum and plasma” value [3, 9] is reported as “undetectable”.
